Results as given in patent publication US6559140B2 (Abbott Laboratories, priority 2000, dated 2003).

Biological target: H3 receptor (Rattus norvegicus, UniProt Q9QYN8)
Experiment: H3 receptor binding, (3H)-N-α-methylhistamine displacement in rat cortical membranes
Conditions: male Sprague-Dawley rat brain cortical membranes, 30 minutes at 25° C., Cheng-Prusoff, geometric mean values of 2-10 separate experiments
Experimental: Briefly, male Sprague-Dawley rat brain cortices were homogenized (1 g tissue/10 mL buffer) in 50 mM Tris-HCl/5 mM EDTA containing protease inhibitor cocktail (Calbiochem) using a polytron set at 20,500 rpm. Homogenates were centrifuged for 20 minutes at 40,000×g. The supernatant was decanted, and pellets were weighed. The pellet was resuspended by polytron homogenization in 40 mL 50 mM Tris-HCl/5 mM EDTA with protease inhibitors and centrifuged for 20 minutes at 40,000×g. […] Test compounds were added to the incubation mixtures prior to initiating the incubation assay by addition of the membranes. Thioperamide (3 μM) was used to determine nonspecific binding. Binding incubations were conducted for 30 minutes at 25° C. and terminated by addition of 2 mL of ice cold 50 mM Tris-HCl (H 7.7) and filtration through 0.3% polyethylenimine-soaked Unifilter plates (Packard). These filters were washed 4 additional times with 2 mL of ice-cold 50 mM Tris-HCl and dried for 1 hour. Radioactivity was determined using liquid scintillation counting techniques. Results were analyzed by Hill transformation and Ki values were determined using the Cheng-Prusoff equation.

Sequence of H3 receptor (Q9QYN8 1-397 isoform Q9QYN8-3): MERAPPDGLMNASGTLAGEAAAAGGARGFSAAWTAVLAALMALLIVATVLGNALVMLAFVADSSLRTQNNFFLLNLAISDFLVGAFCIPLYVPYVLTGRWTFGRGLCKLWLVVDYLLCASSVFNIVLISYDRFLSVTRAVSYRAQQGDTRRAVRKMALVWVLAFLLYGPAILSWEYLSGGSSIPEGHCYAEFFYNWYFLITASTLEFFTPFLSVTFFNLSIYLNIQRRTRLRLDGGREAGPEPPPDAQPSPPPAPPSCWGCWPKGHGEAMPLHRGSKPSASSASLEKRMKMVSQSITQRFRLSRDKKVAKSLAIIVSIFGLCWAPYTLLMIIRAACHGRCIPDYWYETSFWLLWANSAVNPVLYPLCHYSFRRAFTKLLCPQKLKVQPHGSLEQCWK

Structure (SMILES) | Ki
C[C@H](N)C(=O)N1CCN(CCCOc2ccc(C(=O)C3CC3)cc2)CC1 [Example 1, (4-(3-(4-((2S)-2-aminopropanoyl)-1-piperazinyl)propoxy)phenyl)(cyclopropyl)methanone] | 19.6 nM
CCCCCC(=O)c1ccc(OCCCN2CCN(C(=O)[C@H](N)CO)CC2)cc1 [Example 52, 1-(4-(3-(4-((2R)-2-amino-3-hydroxypropanoyl)-1-piperazinyl)propoxy)phenyl)-1-hexanone] | 8.39 nM
C[C@H](CCOc1ccc(C(=O)C2CC2)cc1)N1CCN(C(=O)[C@@H](C)NC(=O)OC(C)(C)C)CC1 [Example 61, Tert-butyl (1R)-2-(4-((1R)-3-(4-(cyclopropylcarbonyl)phenoxy)-1-methylpropyl)-1-piperazinyl)-1-methyl-2-oxoethylcarbamate] | 0.74 nM
C[C@H](CCOc1ccc(C(=O)C2CC2)cc1)N1CCN(C(=O)[C@@H](C)N)CC1 [Example 62, (4-(((3R)-3-(4-((2R)-2-aminopropanoyl)-1-piperazinyl)butyl)oxy)phenyl)(cyclopropyl)methanone] | 1.46 nM
C[C@@H](NC(=O)OC(C)(C)C)C(=O)N1CCN(CCCOc2ccc(C(=O)C3CC3)cc2)CC1 [Example 64, Tert-butyl (1R)-2-(4-(3-(4-(cyclopropylcarbonyl)phenoxy)propyl)-1-piperazinyl)-1-methyl-2-oxoethylcarbamate] | 2.07 nM
CC(C)(C)[C@@H](N)C(=O)N1CCN(CCCOc2ccc(C(=O)C3CC3)cc2)CC1 [Example 66, (4-(3-(4-((2R)-2-amino-3,3-dimethylbutanoyl)-1-piperazinyl)propoxy)phenyl)(cyclopropyl)methanone] | 12.1 nM
CC[C@@H](N)C(=O)N1CCN(CCCOc2ccc(C(=O)C3CC3)cc2)CC1 [Example 69, (4-(3-(4-((2R)-2-aminobutanoyl)-1-piperazinyl)propoxy)phenyl)(cyclopropyl)methanone] | 1.24 nM
N[C@H](COCc1ccccc1)C(=O)N1CCN(CCCOc2ccc(C(=O)C3CC3)cc2)CC1 [Example 75, (4-(3-(4-((2R)-2-amino-3-(benzyloxy)propanoyl)-1-piperazinyl)propoxy)phenyl)(cyclopropyl)methanone] | 4.67 nM
O=C(c1ccc(OCCCN2CCN(C(=O)C[C@H]3CCCN3)CC2)cc1)C1CC1 [Example 86, Cyclopropyl(4-(3-(4-((2R)-pyrrolidinylacetyl)-1-piperazinyl)propoxy)phenyl)methanone] | 4.64 nM
Cn1cnc(C[C@@H](N)C(=O)N2CCN(CCCOc3ccc(C(=O)C4CC4)cc3)CC2)c1 [Example 88, (4-(3-(4-((2R)-2-amino-3-(1-methyl-1H-imidazol-4-yl)propanoyl)-1-piperazinyl)propoxy)phenyl)(cyclopropyl)methanone] | 6.56 nM
C[C@@H](N)C(=O)N1CCN(CCCOc2ccc(-c3ccc(C#N)cc3)cc2)CC1 [Example 100] | 12.4 nM
C[C@H](N)C(=O)N1CCCN(CCCOc2ccc(C(=O)C3CC3)cc2)CC1 [Example 117, (4-(3-(4-((2S)-2-aminopropanoyl)-1,4-diazepan-1-yl)propoxy)phenyl)(cyclopropyl)methanone] | 1.07 nM
O=C(c1ccc(OCCCN2CCCN(C(=O)C[C@@H]3CCCN3)CC2)cc1)C1CC1 [Example 124, Cyclopropyl(4-(3-(4-((2S)-pyrrolidinylacetyl)-1,4-diazepan-1-yl)propoxy)phenyl)methanone] | 4.03 nM
C[C@@H](NC(=O)c1ccco1)C(=O)N1CCN(CCCOc2ccc(C(=O)C3CC3)cc2)CC1 [Example 126, N-((1R)-2-(4-(3-(4-(cyclopropylcarbonyl)phenoxy)propyl)-1-piperazinyl)-1-methyl-2-oxoethyl)-2-furamide] | 0.742 nM
C[C@@H](NC(=O)[C@H]1CCCN1)C(=O)N1CCN(CCCOc2ccc(C(=O)C3CC3)cc2)CC1 [Example 129, (2R)-N-((1R)-2-(4-(3-(4-(cyclopropylcarbonyl)phenoxy)propyl)-1-piperazinyl)-1-methyl-2-oxoethyl)-2-pyrrolidinecarboxamide] | 0.425 nM
N#Cc1ccc(-c2ccc(OCCCN3CCCN(C(=O)[C@@H](Cc4cscn4)NC(=O)c4ccco4)CC3)cc2)cc1 [Example 137, N-((1R)-2-(4-(3-((4′-cyano(1,1′-biphenyl)-4-yl)oxy)propyl)-1,4-diazepan-1-yl)-2-oxo-1-(1,3-thiazol-4-ylmethyl)ethyl)-2-furamide] | 0.208 nM

Structure (SMILES) | Ki
C[C@@H](N)C(=O)N1CCN(CCCOc2ccc(C(=O)C3CC3)cc2)CC1 [Example 138, (4-(3-(4-((2R)-2-aminopropanoyl)-1-piperazinyl)propoxy)phenyl)(cyclopropyl)methanone] | 0.996 nM
CC(C)N[C@H](C)C(=O)N1CCN(CCCOc2ccc(C(=O)C3CC3)cc2)CC1 [Example 139, Cyclopropyl(4-(3-(4-((2R)-2-(isopropylamino)propanoyl)-1-piperazinyl)propoxy)phenyl)methanone] | 7.29 nM
N#Cc1ccc(-c2ccc(OCCN3CCN(C(=O)[C@@H]4CCCN4)CC3)cc2)cc1 [Example 140, 4′-(2-(4-((2S)-pyrrolidinylcarbonyl)-1-piperazinyl)ethoxy)(1,1′-biphenyl)-4-carbonitrile] | 818 nM
CCCc1nc(-c2ccc(OCCCN3CCCN(C(=O)[C@@H](C)NC(=O)c4ccco4)CC3)cc2F)no1 [Example 141, N-[(1R)-2-(4-{3-[3-fluoro-4-(5-propyl-1,2,4-oxadiazol-3-yl)phenoxy]propyl}-1,4-diazepan-1-yl)-1-methyl-2-oxoethyl]-2-furamide] | 2.34 nM
CC(C)CCc1nc(-c2ccc(OCCCN3CCCN(C(=O)[C@@H](C)NC(=O)c4ccco4)CC3)cc2F)no1 [Example 142, N-[(1R)-2-(4-{3-[3-fluoro-4-(5-isopentyl-1,2,4-oxadiazol-3-yl)phenoxy]propyl}-1,4-diazepan-1-yl)-1-methyl-2-oxoethyl]-2-furamide] | 0.72 nM
CC(C)OCc1nc(-c2ccc(OCCCN3CCCN(C(=O)[C@@H](C)NC(=O)c4ccco4)CC3)cc2F)no1 [Example 143, N-{(1R)-2-[4-(3-{3-fluoro-4-[5-(isopropoxymethyl)-1,2,4-oxadiazol-3-yl]phenoxy}propyl)-1,4-diazepan-1-yl]-1-methyl-2-oxoethyl}-2-furamide] | 4 nM
C[C@@H](NC(=O)c1ccco1)C(=O)N1CCCN(CCCOc2ccc(-c3noc(C4CCCC4)n3)c(F)c2)CC1 [Example 144, N-[(1R)-2-(4-{3-[4-(5-cyclopentyl-1,2,4-oxadiazol-3-yl)-3-fluorophenoxy]propyl}-1,4-diazepan-1-yl)-1-methyl-2-oxoethyl]-2-furamide] | 1.36 nM
C[C@H](NC(=O)OC(C)(C)C)c1nc(-c2ccc(OCCCN3CCCN(C(=O)[C@@H](C)NC(=O)c4ccco4)CC3)cc2F)no1 [Example 146, Tert-butyl (1S)-1-{3-[2-fluoro-4-(3-{4-[(2R)-2-(2-furoylamino)propanoyl]-1,4-diazepan-1-yl}propoxy)phenyl]-1,2,4-oxadiazol-5-yl}ethylcarbamate] | 9.03 nM
C[C@@H](NC(=O)c1ccco1)C(=O)N1CCCN(CCCOc2ccc(-c3noc(-c4ccoc4)n3)c(F)c2)CC1 [Example 147, N-{(1R)-2-[4-(3-{3-fluoro-4-[5-(3-furyl)-1,2,4-oxadiazol-3-yl]phenoxy}propyl)-1,4-diazepan-1-yl]-1-methyl-2-oxoethyl}-2-furamide] | 1.68 nM
C[C@@H](NC(=O)c1ccco1)C(=O)N1CCCN(CCCOc2ccc(-c3noc(-c4cccs4)n3)c(F)c2)CC1 [Example 148, N-{(1R)-2-[4-(3-{3-fluoro-4-[5-(2-thienyl)-1,2,4-oxadiazol-3-yl]phenoxy}propyl)-1,4-diazepan-1-yl]-1-methyl-2-oxoethyl}-2-furamide] | 3.94 nM
C[C@@H](NC(=O)c1ccco1)C(=O)N1CCCN(CCCOc2ccc(-c3noc(-c4nccs4)n3)c(F)c2)CC1 [Example 149, N-{(1R)-2-[4-(3-{3-fluoro-4-[5-(1,3-thiazol-2-yl)-1,2,4-oxadiazol-3-yl]phenoxy}propyl)-1,4-diazepan-1-yl]-1-methyl-2-oxoethyl}-2-furamide] | 6.24 nM
C[C@@H](NC(=O)c1ccco1)C(=O)N1CCCN(CCCOc2ccc(-c3noc(-c4ccncc4)n3)c(F)c2)CC1 [Example 150, N-{(1R)-2-[4-(3-{3-fluoro-4-[5-(4-pyridinyl)-1,2,4-oxadiazol-3-yl]phenoxy}propyl)-1,4-diazepan-1-yl]-1-methyl-2-oxoethyl}-2-furamide] | 12.6 nM
C[C@@H](NC(=O)c1ccco1)C(=O)N1CCCN(CCCOc2ccc(-c3noc(-c4ccccc4)n3)c(F)c2)CC1 [Example 151, N-[(1R)-2-(4-{3-[3-fluoro-4-(5-phenyl-1,2,4-oxadiazol-3-yl)phenoxy]propyl}-1,4-diazepan-1-yl)-1-methyl-2-oxoethyl]-2-furamide] | 4.29 nM
C[C@@H](NC(=O)c1ccco1)C(=O)N1CCCN(CCCOc2ccc(-c3noc(CCc4ccccc4)n3)c(F)c2)CC1 [Example 152, N-{(1R)-2-[4-(3-{3-fluoro-4-[5-(2-phenylethyl)-1,2,4-oxadiazol-3-yl]phenoxy}propyl)-1,4-diazepan-1-yl]-1-methyl-2-oxoethyl}-2-furamide] | 1.01 nM
N#Cc1ccc(C(=O)NCCC(=O)N2CCN(CCCOc3ccc(-c4noc(-c5ccccc5)n4)c(F)c3)CC2)cc1 [Example 153, 4′-cyano-N-[3-(4-{3-[3-fluoro-4-(5-phenyl-1,2,4-oxadiazol-3-yl)phenoxy]propyl}-1-piperazinyl)-3-oxopropyl]benzamide] | 26.1 nM
